Experimental findings from the OligoGym collection are described below.

“And” between values parts separate entries of the source, which are not always exact repeats. Equal values may be shown once. After the bases stand the sugars from the 5' end (letter, count) and the backbone: PS all phosphorothioate, else s phosphorothioate and o phosphodiester by linkage. Methylation of C is not given here. k = constrained ethyl (cEt); d = 2'-deoxy (DNA)

The target of this series is MALAT1. The note with it: ASO, A431, 0.005 µM.
For the sequence CTAAGCGAATGGCTTT (sugars k3 d10 k3, PS), the target mRNA inhibition came out at 22%.
To CTAATAGCAGCGGGAT (sugars k3 d10 k3, PS) belongs 22%; to CTAATCACTGTCAATT (sugars k3 d10 k3, PS), -1%; to CTACAACAAGTAAGCC (sugars k3 d10 k3, PS), 7%.
To CTACCATATCCAAACA (sugars k3 d10 k3, PS) belongs 21%; to CTACCTTCATCACCAA (sugars k3 d10 k3, PS), 2%; to CTACTATTTCTCCAGG (sugars k3 d10 k3, PS), 41%.
To CTACTTAGCTGTGGTT (sugars k3 d10 k3, PS) belongs 33%.
Consider CTAGACAGACCTAAGG (sugars k3 d10 k3, PS), for which the target mRNA inhibition is 2%.
To CTAGGATCCTCTACGC (sugars k3 d10 k3, PS) belongs 11%; to CTATAAGGACAGCTAA (sugars k3 d10 k3, PS), 4%; to CTATAGTCTGAAGAAT (sugars k3 d10 k3, PS), 22%.
Turning to CTATCTGAAACTCTTG (sugars k3 d10 k3, PS), the target mRNA inhibition is 57% and 34%.
To CTATTCCTTTCATAGA (sugars k3 d10 k3, PS) belongs -11%; to CTATTGTCCCATAACT (sugars k3 d10 k3, PS), 38%; to CTCAAATGCCTATCTT (sugars k3 d10 k3, PS), 19%.
CTCAATTTGGCTATCA (sugars k3 d10 k3, PS): the target mRNA inhibition was 60% and 80%.
To CTCACAAGGCAAATCG (sugars k3 d10 k3, PS) belongs -12%; to CTCACATGCCAGTTAC (sugars k3 d10 k3, PS), 51%; to CTCATACACTCACTAG (sugars k3 d10 k3, PS), 0%.
On to CTCATTTATTTCGGCT (sugars k3 d10 k3, PS), for which the target mRNA inhibition is 78% and 93%.
Next, CTCCATGAAGAAGCTT (sugars k3 d10 k3, PS): 49%; CTCCCAATTAATCTTT (sugars k3 d10 k3, PS): 27%; CTCCCCCATTATATTA (sugars k3 d10 k3, PS): 31%.
To CTCCCCGCCTGAGCCC (sugars k3 d10 k3, PS) belongs -23%; to CTCCGAAGACACAGAG (sugars k3 d10 k3, PS), -3%; to CTCCGTGTGGTTGCCA (sugars k3 d10 k3, PS), 24%.
For the sequence CTCCTGACAAATTATA (sugars k3 d10 k3, PS), the target mRNA inhibition worked out at 17%.
Turning to CTCCTGAGATGACTGA (sugars k3 d10 k3, PS), the target mRNA inhibition turned out to be 39%.
For CTCTAACCCAGTTTGT (sugars k3 d10 k3, PS), the target mRNA inhibition was found to be 36%.
Next, CTCTAAGATTGTAAGC (sugars k3 d10 k3, PS): 16%; CTCTTCTGATAACGAA (sugars k3 d10 k3, PS): 23%.
To CTGAAAACTCCCCCCC (sugars k3 d10 k3, PS) belongs -2%.
To CTGAAGTTCTCCTGAG (sugars k3 d10 k3, PS) belongs 38%; to CTGAGAAAACAATACG (sugars k3 d10 k3, PS), 8%; to CTGCAAACTTTAGACA (sugars k3 d10 k3, PS), 7%.
On to CTGCACCACCAGAAAT (sugars k3 d10 k3, PS), for which the target mRNA inhibition was found to be 20%.
To CTGCATCTAGGCCATC (sugars k3 d10 k3, PS) belongs 65% and 52%; to CTGCATTTACTTGCCA (sugars k3 d10 k3, PS), 17%.
Next, CTGCCAGGCTGGTTAT (sugars k3 d10 k3, PS): 1%; CTGCGCTGGCTGCCTC (sugars k3 d10 k3, PS): 30%; CTGCGGCCCCCCAGTT (sugars k3 d10 k3, PS): 25%.
With CTGCTACCTTCATCAC (sugars k3 d10 k3, PS), the target mRNA inhibition worked out at 39%.
Next, CTGGAATGGCCAGCCT (sugars k3 d10 k3, PS): 15%.
CTGGATAAGTATTATA (sugars k3 d10 k3, PS): the target mRNA inhibition is 28%.
For the sequence CTGGCATGAGTTTATC (sugars k3 d10 k3, PS), the target mRNA inhibition stood at 27%.
Next, CTGGTTATGACTCAGA (sugars k3 d10 k3, PS): 1%.
To CTGTCTAAGAGGTTAT (sugars k3 d10 k3, PS) belongs 7%; to CTGTTAACAGCTGCCT (sugars k3 d10 k3, PS), 52%; to CTGTTACACCTTGAGT (sugars k3 d10 k3, PS), 33%.
As to CTGTTATGTTCACCTG (sugars k3 d10 k3, PS), the target mRNA inhibition was 56% and 77%.
Next, CTTAACAGCTTATGGA (sugars k3 d10 k3, PS): 30%.
As for CTTACTGGGTCTGGCT (sugars k3 d10 k3, PS), the target mRNA inhibition was found to be 41%.
For CTTACTTGATAATACA (sugars k3 d10 k3, PS), the target mRNA inhibition came out at 35%.
Next, CTTAGTAACCTATTGA (sugars k3 d10 k3, PS): 34%; CTTATCAATTCACCAA (sugars k3 d10 k3, PS): 47%.
As to CTTCACCAAATCGCAC (sugars k3 d10 k3, PS), the target mRNA inhibition is -13%.
Next, CTTCAGACAAGATTCA (sugars k3 d10 k3, PS): 24%; CTTCAGGCGAGCTGAG (sugars k3 d10 k3, PS): -4%; CTTCCCTATATAAGGT (sugars k3 d10 k3, PS): 10%.
CTTCCGCCGCCTCTTA (sugars k3 d10 k3, PS): the target mRNA inhibition worked out at 9%.
On to CTTCGCCTTCCCGTAC (sugars k3 d10 k3, PS), for which the target mRNA inhibition is 35%.
Regarding CTTCTAAGTTTGTACA (sugars k3 d10 k3, PS), the target mRNA inhibition was 47%.
Next, CTTCTGGAAAAGCTAG (sugars k3 d10 k3, PS): 8%; CTTGAATGCAAACTAC (sugars k3 d10 k3, PS): -6%.
Take CTTGACAAGCAATTAA (sugars k3 d10 k3, PS): the target mRNA inhibition was determined as 30%.
For the sequence CTTTAGGATTCTAGAC (sugars k3 d10 k3, PS), the target mRNA inhibition is 7%.
Next, CTTTTTAAAAGATCGC (sugars k3 d10 k3, PS): 31%; GAAAACTCCCCCCCGC (sugars k3 d10 k3, PS): -4%.
Next, GAAAAGTGGTTGCCCG (sugars k3 d10 k3, PS): 32%; GAAAGATTTGAGCTGC (sugars k3 d10 k3, PS): -10%; GAAAGTCCTTCACATT (sugars k3 d10 k3, PS): 22%.
Next, GAAAGTGCTCACAAGG (sugars k3 d10 k3, PS): 6%; GAAATCGGAGCAGCAC (sugars k3 d10 k3, PS): 1%.
As for GAAATCTATTCAATAC (sugars k3 d10 k3, PS), the target mRNA inhibition is 24%.
Next, GAACCCCGTCCTGGAA (sugars k3 d10 k3, PS): -18%; GAACTAGCACCTGCAG (sugars k3 d10 k3, PS): 4%; GAACTATCACAATTCT (sugars k3 d10 k3, PS): 3%.
As for GAAGTGTACTATCCCA (sugars k3 d10 k3, PS), the target mRNA inhibition is 72% and 93%.
As to GAATACTCTTCCAAGG (sugars k3 d10 k3, PS), the target mRNA inhibition came out at 16%.
To GAATCCCCCCCAAGAT (sugars k3 d10 k3, PS) belongs -15%; to GAATCCTGTCTGCTGC (sugars k3 d10 k3, PS), 33%.
Consider GAATTCAACTGGAAGC (sugars k3 d10 k3, PS), for which the target mRNA inhibition stood at 7%.
Next, GACAAGATTCATGAGT (sugars k3 d10 k3, PS): 47%; GACAGATTAGTAGTCA (sugars k3 d10 k3, PS): -12%.
Next, GACATTCAAGCTGAAC (sugars k3 d10 k3, PS): 53%.
To GACCAACCCCCAGTTC (sugars k3 d10 k3, PS) belongs 3%.
Turning to GACCAACTAAGCGAAT (sugars k3 d10 k3, PS), the target mRNA inhibition turned out to be 39%.
For the sequence GAGAAACCTACAACAC (sugars k3 d10 k3, PS), the target mRNA inhibition amounted to 11%.
Next, GAGAACAACTCGCATC (sugars k3 d10 k3, PS): 20%; GAGAACTGCTCTAGTT (sugars k3 d10 k3, PS): 34%.
Take GAGCCAAGCACTCATA (sugars k3 d10 k3, PS): the target mRNA inhibition stood at 6%.
On to GAGGCAAACGAAACAT (sugars k3 d10 k3, PS), for which the target mRNA inhibition is 1%.
To GAGTAACTACCAGCCA (sugars k3 d10 k3, PS) belongs 37%; to GAGTATAAGCCTGAAA (sugars k3 d10 k3, PS), 16%.
Regarding GATAAAAGCAGCTCCA (sugars k3 d10 k3, PS), the target mRNA inhibition is 30%.
To GATAACGAAGAGATAC (sugars k3 d10 k3, PS) belongs 19%; to GATATTGTGCTGTTAC (sugars k3 d10 k3, PS), -17%; to GATCGCCTTCAAATTA (sugars k3 d10 k3, PS), 39%.
